According to patent US20060094059A1, “Methods for identifying new drug leads and new therapeutic uses for known drugs” (Odyssey Thera, Inc., priority 2004, published 2006):

Assays:
Cofilin:LIMK2 = test: Protein-fragment complementation assay Cofilin:LIMK2; assay type: cell-based, human; settings: hit in Cofilin/LIMK2 assay; drugs screened at 10 micromolar
Excerpt: To construct dynamic assays for protein-protein complexes, we used a protein-fragment complementation assay strategy (PCAs) in intact human cells. (A variety of other suitable assays, and reporter options, are described in detail below.) The principle of PCA is that complementary polypeptide fragments (F[1] and F[2]) of a reporter protein or enzyme will fold into an active form only if fused to two proteins which interact and bring the complementary fragments of the reporter protein into proximity. Reconstitution of the fragments of the reporter protein generates a fluorescent signal that can be quantified in intact cells, and the amount of the signal is proportional to the amount of the protein-protein complex used in constructing the assay. Given a suitable reporter type, the subcellular location of the complex can also be measured.
Reporter fragments for PCA were generated by oligonucleotide synthesis (Blue Heron Biotechnology, Bothell, Wash.), starting with the sequence of yellow fluorescent protein (YFP). First, oligonucleotides coding for polypeptide fragments YFP[1]and YFP[2] […] Next, PCR mutagenesis was used to generate the mutant fragments IFP[1] and IFP[2]. The IFP[1] fragment corresponds to YFP[1]-(F46L, F64L, M153T) and the IFP[2] fragment corresponds to YFP[2]-(V163A, S175G). […]

[1] = system: phospho-ERK (MAPK) in the presence of VEGF; test: Immunofluorescence assay phospho-ERK + VEGF; assay type: cell-based, human; settings: FIG. 3G, compared with the vehicle alone
Description: Immunofluorescence was performed on drug-treated cells to assess the post-translational modification status of proteins involved in the pathways of interest. We constructed assays designed to measure the phosphorylation status of key signaling proteins in the absence and presence of a growth factor stimulus. A drug capable of blocking or inhibiting the pathway leading to the signaling protein would in principle cause a decrease in the phosphorylation of that signaling protein in response to the selected growth factor. Such a change in phosphorylation status could be measured by a decrease in fluorescence in the presence of the drug. […]
HEK293T cells were seeded at a density of 7,500/well in poly-D-lys coated, blackwalled 96 well plate (Greiner). […] Phosphorylated ERK was detected by incubating the fixed cells with rabbit phospho-ERK (T202/Y204)-specific antibodies (Cell Signaling Technologies) followed by Alexa488 conjugated goat anti-rabbit antibody (Molecular Probes). […] Fluorescence images were acquired on a Discovery-1 imaging station (Molecular Devices) as described above.
Background fluorescence due to nonspecific binding by the secondary antibody was established with the use of cells that were incubated with BSA/PBS and without primary antibodies. […]

SMILES: O=C(Nc1ccc([N+](=O)[O-])cc1Cl)c1cc(Cl)ccc1O [Niclosamide]
- Assay activity (Cofilin:LIMK2): Cofilin/LIMK2,
- level of phospho-ERK (intensity of the fluorescence) [1]: decrease in the level of phospho-ERK
